Reference: patent publication US11612592B2, “Liquid formulations containing picosulfate and magnesium citrate” (FERRING B.V., priority 2015, dated 2023)
“Also recorded” adds a separate entry of the source.

How the values were obtained:
[1] = Freeze-thaw cycle accelerated method for predicting precipitation (height of precipitate in tube); assay type: physicochemical; settings: for Effectiveness as precipitation inhibitor compared with malic acid: 31 mmol in 150 mL (210 mM); for Effectiveness to inhibit precipitation: 63 mmol in 150 mL (420 mM), five freeze-thaw cycles
Method: A picosulfate formulation containing sodium picosulfate (10 mg), magnesium oxide (3.5 g), citric acid (12 g), and KHCO3 (0.65 g) and, optionally, a precipitation inhibitor (or combination of inhibitors) to be tested, dissolved in water (150 mL) is prepared. The pH is adjusted to the range 4.7-5.1 using aq. NaOH and aq. HCl solutions. The solution is filtered through a 0.22 μm PTFE filter under vacuum.
Two portions of 10 mL of the formulation test solution are placed in tapered, graduated, centrifuge tubes (15 mL) and subjected to five freeze-thaw cycles in which the solutions are frozen at −20° C. for at least 12 h and then thawed at 20-25° C. for 8 h. At the end of each cycle, the tube is inspected for precipitation at the bottom of the tube. If precipitation is present, the amount of precipitate is quantitated by measuring the height (in mm) of the precipitate in the centrifuge tube using a ruler.
The amount of precipitate (if any) is quantitated by measuring the height (in mm) of the precipitate in the centrifuge tube using a ruler at the end of each freeze thaw cycle.
If a polymer is included in the formulation, the polymer (75-150 mg) is dissolved in water (150 mL) until a clear solution (containing the polymer at a concentration of […]) is formed. A sachet of PREPOPIK® sodium picosulfate/magnesium citrate granules (containing sodium picosulfate (10 mg), magnesium oxide (3.5 g), citric acid (12 g), KHCO3 (0.65 g), Na-saccharin and orange flavoring) is added. A carboxylic acid (31-63 mmol) is added, and the pH is adjusted to the range 4.7-5.1 using aq. NaOH and aq. HCl solutions. The solution is filtered through a 0.22 μm PTFE filter under vacuum.

[2] = Time to precipitation on storage under ambient conditions (20-25 °C); assay type: physicochemical; settings: Table 3 data; 0.42 M
Method: A liquid formulation containing sodium picosulfate and magnesium citrate was prepared by dissolving a sachet of commercially available PREPOPIK® containing sodium picosulfate (10 mg), magnesium oxide (3.5 g), citric acid (12 g), KHCO3 (0.65 g), and orange or berry flavoring in water (150 mL). The solution is stored under ambient conditions and observed periodically until precipitation from the solution is noted.
A liquid formulation containing sodium picosulfate and magnesium citrate stabilized with malic acid was prepared using the ingredients listed in Table 1. The solution is stored under ambient conditions and observed periodically for precipitation from the solution. No precipitation is observed within 340 days.
As a reference, commercially available sodium picosulfate/magnesium oxide/citric acid (PICOSOLUTION™, Pharmbio Co., Ltd.) is also stored under ambient conditions and observed periodically for precipitation from the solution. No precipitation is observed within 645 days.
The remainder of the formulation test solution may be stored at ambient temperature (e.g., 20-25° C.) to determine the stability under non-accelerated conditions.
Samples of each of the solutions are also stored at ambient temperature (20-25° C.) and monitored for the appearance of precipitation. […]

O=C(O)CC(=O)O [malonic acid]
Effectiveness as precipitation inhibitor compared with malic acid [1]: more effective as a precipitation inhibitor than malic acid
Effectiveness to inhibit precipitation [1]: very effective; also recorded: effective to inhibit precipitation

O=C(O)CC(O)C(=O)O (stereo not drawn) [malic acid]
Concentration of malic acid needed for prolonged stability [2]: ≥ 63 mmol per 150 mL
Effectiveness to inhibit precipitation [1]: very effective; also recorded: effective to inhibit precipitation

O=C(O)C(O)C(O)C(=O)O (stereo not drawn) [tartaric acid]
Effectiveness as precipitation inhibitor compared with malic acid [1]: of comparable effectiveness
Effectiveness to inhibit precipitation [1]: very effective; also recorded: effective to inhibit precipitation
